Measured values reported in patent publication US11591323B2, “Muscarinic agonists as non-steroidal and non-opioid analgesics and methods of use thereof” (Barry University, priority 2019, dated 2023).
“Also recorded” adds a separate entry of the source.

Key:
Assay type in all cases: cell-based
M4 muscarinic receptor = target: T1, M4 muscarinic receptor (Homo sapiens, UniProt P08173); experiment: accumulation of cAMP at PTX-treated CHO cells expressing M4; set-up: host or cells: CHO cells, stably transfected; details: forskolin-stimulated and basal, in words
T1 sequence (P08173 1-479): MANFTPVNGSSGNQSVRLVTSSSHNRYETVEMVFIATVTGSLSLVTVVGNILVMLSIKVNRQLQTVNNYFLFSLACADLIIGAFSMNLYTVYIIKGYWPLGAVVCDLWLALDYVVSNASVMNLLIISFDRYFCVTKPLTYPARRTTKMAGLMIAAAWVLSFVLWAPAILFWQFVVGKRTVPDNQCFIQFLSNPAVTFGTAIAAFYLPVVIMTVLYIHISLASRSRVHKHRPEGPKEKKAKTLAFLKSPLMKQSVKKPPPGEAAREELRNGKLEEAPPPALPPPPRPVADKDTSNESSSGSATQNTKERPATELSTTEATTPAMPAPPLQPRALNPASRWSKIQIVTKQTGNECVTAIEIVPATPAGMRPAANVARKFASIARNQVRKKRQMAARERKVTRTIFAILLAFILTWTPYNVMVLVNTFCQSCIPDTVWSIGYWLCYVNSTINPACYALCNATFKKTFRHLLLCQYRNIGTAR
Protocol: (§1) To exclude the possibility that activation of the non-preferential Gs pathway was obscured by activation of the preferential Gi/o pathway, accumulation of cAMP was measured in CHO cells expressing M2 or M4 receptors where Gi/o G-proteins were inactivated by pertussis toxin (PTX) treatment (FIG. 4).
Cell culture and membrane preparation: Chinese hamster ovary (CHO) cells stably transfected with the genes of individual human variants of muscarinic receptors were purchased from Missouri S&T cDNA Resource Center (Rolla, Mo., USA). Fresh primary cell culture of smooth muscle cells (SMC) from rat aorta prepared as previously described was kindly provided by Dr. Lucie Bačáková. Primary culture of SMCs was grown to confluency in 75 cm^2 flasks in Dulbecco's modified Eagle's medium supplemented with 10% fetal bovine serum. Up to 6-times, 2 million of cells were sub-cultured. […]
(§2) Measurements of the production of cAMP and inositol phosphates: Levels of second messengers cAMP and inositol phosphates were determined in radiochemical chromatography assays as described previously. […] Samples were applied to alumina columns (1.5 g of alumina per column), washed with 2 ml ammonium acetate (pH=7.0) and eluted from columns with 4 ml ammonium acetate and measured by liquid scintillation spectrometry. […] After separation of water and organic phases, 0.6 ml of water phase was applied to Dowex columns (1.5 g of Dowex per column), washed by 20 ml of 60 mM ammonium formate/5 mM sodium borate buffer and eluted from columns with 4 ml of 1M ammonium formate/0.1 formic acid buffer and measured by liquid scintillation spectrometry.
as §1, with “[…]” for “Gs”, “11). […]” for “4).”

[1] = test system: submaxillary gland (rich in M3); experiment: accumulation of IPX in dissipated rat submaxillary gland; details: in words
Protocol: (§3) Effects of compounds 6A and 7A were then measured ex vivo in dissipated rat tissues (FIG. 5). Accumulation of IPX was measured in dissipated brain cortex (rich in M1 & M3), submaxillary gland (M1 & M3), and ventral tegmental area (M5). Native tissues express about 10-times less muscarinic receptors than CHO cell lines. Accumulation of cAMP was measured in cerebellum (M2) and striatum (M4).
Rat dissipated tissues: Suspension of dissipated tissues from rat brain cortex, cerebellum, striatum, ventral tegmental area (VTA) and submaxillary glands was prepared as described previously in supplementary methods. Adult 8-weeks old male Wistar rats were scarified by cervical dislocation in accordance with current legislative and guidelines under permission of Czech Ministry of Agriculture 16OZ23113/2017-17214. Tissues were dissected immediately. Submaxillary glands were minced by scissors. Tissues were dispersed by incubation for 15 min at 37° C. in KHB supplemented with trypsin and trituration every 5 min. Large undissipated parts were removed by cell mesh. […]
as §2
To exclude the possibility that the observed effects of compounds 6A and 7A are the result of overexpression in the heterologous system, functional response to the compounds was measured ex vivo in dissipated native rat tissues. […] Accumulation of cAMP was measured in M2-rich cerebellum and M4-rich striatum.

cerebellum (M2 rich) = experiment: forskolin-stimulated cAMP in dissipated rat cerebellum; details: in words
Protocol: as §3
Rat dissipated tissues: Suspension of dissipated tissues from rat brain cortex, cerebellum, striatum, ventral tegmental area (VTA) and submaxillary glands was prepared as described previously in supplementary methods. Adult 8-weeks old male Wistar rats were scarified by cervical dislocation in accordance with current legislative and guidelines under permission of Czech Ministry of Agriculture 16OZ23113/2017-17214. Tissues were dissected immediately. Submaxillary glands were minced by scissors. Tissues were dispersed by incubation for 15 min at 37° C. in KHB supplemented with trypsin and trituration every 5 min. Large undissipated parts were removed by cell mesh. Then dissipated tissues were centrifuged 3 min at 250×g, re-suspended in KHB and centrifuged again to remove trypsin. Suspension of dissipated tissues was used immediately in experiments. Two submaxillary glands or about 400 mg of brain tissue was used a 96-sample assay.
Measurements of the production of cAMP and inositol phosphates: Levels of second messengers cAMP and inositol phosphates were determined in radiochemical chromatography assays as described previously. To determine level of cAMP, cells in suspension were pre-incubated for 1 h with 0.4 μM [^3H]adenine, washed, and incubated for 10 min in the presence of isobutylmethylxanthine and 10 μM forskolin. […] Incubation was ended by addition of 0.2 ml of 2.5 M HCl to the samples. Samples were applied to alumina columns (1.5 g of alumina per column), washed with 2 ml ammonium acetate (pH=7.0) and eluted from columns with 4 ml ammonium acetate and measured by liquid scintillation spectrometry. […] For this purpose, new CHO cell lines stably expressing promiscuous G15 G-protein and M2 or M4 receptor were generated by transfection with pCMV/hygro vector and hygromycin selection. To determine the rate of formation of inositol phosphates IPX, suspended cells were pre-incubated with 0.1 μM [^3H]myo-inositol for 60 min, washed, and incubated with 10 mM LiCl for 15 min. […] The incubation was stopped by addition of 0.5 ml of chloroform methanol HCl mixture (2:1:0.1). After separation of water and organic phases, 0.6 ml of water phase was applied to Dowex columns (1.5 g of Dowex per column), washed by 20 ml of 60 mM ammonium formate/5 mM sodium borate buffer and eluted from columns with 4 ml of 1M ammonium formate/0.1 formic acid buffer and measured by liquid scintillation spectrometry.
To exclude the possibility that the observed effects of compounds 6A and 7A are the result of overexpression in the heterologous system, functional response to the compounds was measured ex vivo in dissipated native rat tissues. […] Accumulation of IPX was measured in brain cortex, submaxillary gland, and ventral tegmental area (VTA) as brain cortex and submaxillary glands are rich in M1 and in M3 receptors, respectively, and VTA is the only region expressing significant amount of M5 receptors. Accumulation of cAMP was measured in M2-rich cerebellum and M4-rich striatum.

Compound	change in accumulation of cAMP (M4 muscarinic receptor)	accumulation of IPX [1]	Emax of inhibition of cAMP synthesis (cerebellum (M2 rich))	forskolin-stimulated cAMP level (cerebellum (M2 rich))
C[N+]1(Cc2cccs2)CC=CCC1.[I-] (centres unmarked) [Compound 7A, 1-methyl-1-[(thiophen-2-yl)methyl]-1,2,3,6-tetrahydropyridin-1-ium iodide]	did not change cAMP levels	no increase in IPX levels	comparable to inhibition by carbachol	only a decrease in cAMP level
C1=CCN(Cc2cccs2)CC1.Cl [Compound 6A, 1-[(thiophen-2-yl)methyl]-1,2,3,6-tetrahydropyridin-1-ium chloride]	did not change cAMP levels	no increase in IPX levels	comparable to inhibition by carbachol	only a decrease in cAMP level
C[N+](C)(C)CCOC(N)=O [carbachol, reference compound]	about two-fold increase	profound accumulation of IPX	–	transient decrease in forskolin-stimulated cAMP level at nanomolar concentrations followed by an increase at micromolar concentrations; also recorded: transient decrease in forskolin-stimulated cAMP level at sub-micromolar concentrations followed by an increase at micromolar concentrations
